Among the data in patent US8853207B2 (Development Center for Biotechnology, priority 2012, dated 2014) are IC50 values, retold here.

Molecules are shown by their SMILES. Where a name gives a salt, the structure may show the parent alone.

Common to all, as to assay type: biochemical
The target of test [1] is FLT3 kinase (FLT3 kinase domain alone, Upstate) (Homo sapiens (Human), UniProt P36888). Nature of the test: FLT3 kinase assay ([33P] incorporation into substrate). The conditions noted are these: 100 μM ATP, 30° C., 30 minutes; read-out: IC50 against FLT3. How it is done: (§1) Inhibition of FLT3 kinase activity by compounds disclosed herein was quantified by measuring the amount of [^33P] incorporated into the substrate in the presence of a test compound. Briefly, a reaction mixture of 25 μL final volume containing 5 ng of FLT3 kinase (FLT3 kinase domain alone, Upstate), 5 μg of the substrate [(Poly (Glu-Tyr, 4:1), Sigma], kinase reaction buffer (20 mM MOPS pH 7.0, 1 mM EDTA, 5% glycerol, 0.01% Brij-35, 0.1% β-mercaptoethanol, 1 mg/mL BSA, 100 μM ATP, 0.1 μCi per well [^33P]-γ-ATP (2,500-3,000 Ci/mmol)), and a test compound (diluted from 9 μM to the desired final concentration by 4% DMSO) or DMSO (as the control) was incubated at 30° C. for 30 minutes. The reaction was stopped by adding 5 μL of 3% phosphoric acid solution. The resultant solution (30 μL) was later harvested by a UniFilter Plate GF/B (PerkinElmer) followed by adding 30 μL of the scintillation cocktail (MicroScint 20, PerkinElmer) to the well. The radioactivity retained on the filter membrane was measured by a luminescence counter (PerkinElmer). The results were analyzed by using linear regression software (GraphPad Prism 4; GraphPad Software Inc.).

Test [2] has as its target C-kit kinase (recombinant N-terminal 6×His-tagged C-kit kinase domain) (Homo sapiens (Human), UniProt P10721). Nature of the test: C-kit kinase assay ([33P] incorporation into substrate). The conditions noted are these: 100 μM ATP, 30° C., 30 minutes. How it is done: Inhibition of C-kit kinase activity by compounds disclosed herein was quantified by measuring the amount of [^33P] incorporated into the substrate in the presence of a test compound. Briefly, a reaction mixture of 25 μL final volume containing 5 ng of C-kit kinase (obtained by purifying recombinant N-terminal 6×His-tagged C-kit kinase domain construct expressed from baculovirus), 5 μg of the substrate [Poly (Glu-Tyr, […], Sigma], kinase reaction buffer (8 mM MOPS/NaOH pH7.0, 0.2 mM EDTA, 10 mM MnCl2, 0.5% glycerol, 0.001% Brij-35, 0.01%, 2-mercaptoethanol, 0.1 mg/ml BSA, 100 μM ATP, 0.1 μCi per well [^33P]-γ-ATP (2,500-3,000 Ci/mmol)), and a test compound (diluted from 9 μM to the desired final concentration by 4% DMSO) or DMSO (as the control) was incubated at 30° C. for 30 minutes. The reaction was stopped by adding 5 μL of 3% phosphoric acid solution. The resultant solution (30 μL) was later harvested by a UniFilter Plate GF/B (PerkinElmer) followed by adding 30 μL of the scintillation cocktail (MicroScint 20, PerkinElmer) to the well. The radioactivity retained on the filter membrane was measured by a luminescence counter (PerkinElmer). The results were analyzed by using linear regression software (GraphPad Prism 4; GraphPad Software Inc.).

The target in test [3] is PDGFR-β kinase (recombinant N-terminal 6×His-tagged PDGFR-β kinase domain) (Homo sapiens (Human), UniProt P09619). Nature of the test: PDGFR-β kinase assay ([33P] incorporation into substrate). The conditions noted are these: 30 nM ATP, 30° C., 30 minutes; read-out: IC50 (nM) PDGFRβ. The procedure: as §1, with “of PDGFR-β” for “of FLT3”, “containing 55” for “containing 5”, “kinase (obtained by purifying recombinant N-terminal 6×His-tagged PDGFR-β” for “kinase (FLT3”, “domain construct expressed by baculovirus), 2.5” for “domain alone, Upstate), 5”, “substrate [Poly” for “substrate [(Poly”, “BSA, 2 mM MnCl2, 30 nM” for “BSA, 100 μM”
Sequence of PDGFR-β kinase (recombinant N-terminal 6×His-tagged PDGFR-β kinase domain) (P09619 600-962): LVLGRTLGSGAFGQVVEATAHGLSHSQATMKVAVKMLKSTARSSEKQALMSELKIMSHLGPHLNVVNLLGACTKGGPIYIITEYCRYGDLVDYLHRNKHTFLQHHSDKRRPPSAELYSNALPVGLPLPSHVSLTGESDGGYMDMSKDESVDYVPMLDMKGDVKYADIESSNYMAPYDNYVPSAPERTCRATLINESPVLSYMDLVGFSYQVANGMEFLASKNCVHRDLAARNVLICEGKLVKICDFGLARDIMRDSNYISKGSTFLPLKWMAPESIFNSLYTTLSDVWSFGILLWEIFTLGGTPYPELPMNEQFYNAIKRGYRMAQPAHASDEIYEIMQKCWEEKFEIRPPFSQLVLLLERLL

Sequence of FLT3 kinase (FLT3 kinase domain alone, Upstate) (P36888 610-943): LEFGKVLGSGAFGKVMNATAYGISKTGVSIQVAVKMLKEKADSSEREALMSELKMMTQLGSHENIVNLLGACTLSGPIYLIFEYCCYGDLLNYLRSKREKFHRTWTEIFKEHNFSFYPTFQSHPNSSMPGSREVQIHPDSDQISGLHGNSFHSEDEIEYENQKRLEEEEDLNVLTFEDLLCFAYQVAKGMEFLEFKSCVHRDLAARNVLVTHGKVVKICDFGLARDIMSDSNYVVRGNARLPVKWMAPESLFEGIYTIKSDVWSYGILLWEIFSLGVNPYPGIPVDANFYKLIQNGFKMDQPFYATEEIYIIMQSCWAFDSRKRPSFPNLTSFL
Sequence of C-kit kinase (recombinant N-terminal 6×His-tagged C-kit kinase domain) (P10721 589-937): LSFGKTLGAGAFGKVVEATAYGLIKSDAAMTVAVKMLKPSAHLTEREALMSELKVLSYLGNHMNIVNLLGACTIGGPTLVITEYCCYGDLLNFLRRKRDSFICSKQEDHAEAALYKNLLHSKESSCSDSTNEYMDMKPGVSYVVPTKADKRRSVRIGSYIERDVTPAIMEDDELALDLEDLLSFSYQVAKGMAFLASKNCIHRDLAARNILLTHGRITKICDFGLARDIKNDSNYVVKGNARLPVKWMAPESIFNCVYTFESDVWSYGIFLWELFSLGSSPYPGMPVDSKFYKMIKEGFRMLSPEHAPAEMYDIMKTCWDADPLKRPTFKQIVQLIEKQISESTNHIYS

As usually defined, the IC50 is the concentration needed to halve the response being measured. On to `COc1ccc(-c2n[nH]c3c2Cc2sc(-c4ccc(NC(=O)CN5CCCC5)nc4)cc2-3)cc1` [Example-82, N-{5-[6-(4-Methoxy-phenyl)-4,7-dihydro-1-thia-4,5-diaza-cyclopenta[a]pentalen-2-yl]-pyridin-2-yl}-2-pyrrolidin-1-yl-acetamide], for which the values for the 50% inhibitory concentration (IC50) in test [1], in test [2] and in test [3] were less than 100 nM, 12.2 nM and 176 nM, respectively. In the case of `COc1ccc(-c2n[nH]c3c2Cc2sc(-c4cccnc4)cc2-3)cc1` [Example-70, 6-(4-Methoxy-phenyl)-2-pyridin-3-yl-4,7-dihydro-1-thia-4,5-diaza-cyclopenta[a]pentalene], the results for the half-maximal inhibitory concentration (IC50) in test [1], in test [2] and in test [3] were less than 100 nM, 24.8 nM and 479 nM, respectively.

In the case of `COc1ccc(-c2n[nH]c3c2Cc2sc(-c4ccc(N)nc4)cc2-3)cc1` [Example-78, 5-[6-(4-Methoxy-phenyl)-4,7-dihydro-1-thia-4,5-diaza-cyclopenta[a]pentalen-2-yl]-pyridin-2-ylamine], the IC50 in test [1] was less than 100 nM; in test [2], 27.5 nM; in test [3], 363 nM. Consider `COc1ccc(-c2n[nH]c3c2Cc2sc(-c4ccncc4)cc2-3)cc1` [Example-69, 6-(4-Methoxy-phenyl)-2-pyridin-4-yl-4,7-dihydro-1-thia-4,5-diaza-cyclopenta[a]pentalene], for which the values for the IC50 in test [1], in test [2] and in test [3] were less than 100 nM, 22 nM and 316 nM, respectively. Consider `Nc1ccc(-c2n[nH]c3c2Cc2sccc2-3)cc1` [Example-2, 4-(4,7-Dihydro-1-thia-4,5-diaza-cyclopenta[a]pentalen-6-yl)-phenylamine hydrochloride], for which the results for the half-inhibitory concentration (IC50) in test [1], in test [2] and in test [3] were less than 100 nM, 201 nM and 859 nM, respectively. Regarding `COc1ccc(-c2ccc(-c3n[nH]c4c3Cc3sccc3-4)cc2)cc1OC` [Example-14, 6-(3′,4′-Dimethoxy-biphenyl-4-yl)-4,7-dihydro-1-thia-4,5-diaza-cyclopenta[a]pent alene], the IC50 in test [1] is less than 100 nM. Turning to `FC(F)(F)c1cccc(Nc2n[nH]c3c2Cc2sccc2-3)c1` [Example-29, (4,7-Dihydro-1-thia-4,5-diaza-cyclopenta[a]pentalen-6-yl)-(3-trifluoromethyl-phenyl)-amine], the IC50 in test [1] was less than 100 nM. As to `c1cc(-c2n[nH]c3c2Cc2sccc2-3)ccn1` [Example-60, 6-Pyridin-4-yl-4,7-dihydro-1-thia-4,5-diaza-cyclopenta[a]pentalene], the concentration for half-maximal inhibition (IC50) in test [1] was less than 100 nM.

Take `COc1ccc(-c2n[nH]c3c2Cc2sc(-c4ccc(OC)c(OC)c4)cc2-3)cc1` [Example-74, 2-(3,4-Dimethoxy-phenyl)-6-(4-methoxy-phenyl)-4,7-dihydro-1-thia-4,5-diaza-cyclopenta[a]pentalene]: in test [1], the concentration for half-maximal inhibition (IC50) was less than 100 nM.

As for `Fc1cccc(Nc2ccc(-c3n[nH]c4c3Cc3sccc3-4)cc2)c1` [Example-37, [4-(4,7-Dihydro-1-thia-4,5-diaza-cyclopenta[a]pentalen-6-yl)-phenyl]-(3-fluoro-phenyl)-amine], the IC50 in test [1] was less than 100 nM. Still for that read-out and setting: the value for `Clc1ccc(Nc2n[nH]c3c2Cc2sccc2-3)cc1Cl` [Example-53, (3,4-Dichloro-phenyl)-(4,7-dihydro-1-thia-4,5-diaza-cyclopenta[a]pentalen-6-yl)-amine] was 100 to 499 nM.

As for `Oc1cccc(Nc2ccc(-c3n[nH]c4c3Cc3sccc3-4)cc2)c1` [Example-10, 3-[4-(4,7-Dihydro-1-thia-4,5-diaza-cyclopenta[a]pentalen-6-yl)-phenylamino]-phenol], the concentration for half-maximal inhibition (IC50) in test [1] is less than 100 nM; in test [2] it was 139 nM; in test [3], 118 nM. Take `Brc1cc2c(s1)Cc1c(-c3ccccc3)n[nH]c1-2` [Example-27]: in test [1], the 50% inhibitory concentration (IC50) is less than 100 nM. On the same count and under the same terms, for `Clc1cccc(-c2n[nH]c3c2Cc2sccc2-3)c1` [Example-39, 6-(3-Chloro-phenyl)-4,7-dihydro-1-thia-4,5-diaza-cyclopenta[a]pentalene] the value was less than 100 nM; for `Oc1ccc(-c2ccc(-c3n[nH]c4c3Cc3sccc3-4)cc2)cc1` [Example-11, 4′-(4,7-Dihydro-1-thia-4,5-diaza-cyclopenta[a]pentalen-6-yl)-biphenyl-4-ol], less than 100 nM.

For `O=C1c2sccc2-c2[nH]nc(-c3ccc(Br)nc3)c21` [Example-68, 6-(6-Bromo-pyridin-3-yl)-4H-1-thia-4,5-diaza-cyclopenta[a]pentalen-7-one], the IC50 in test [1] is 500 to 1000 nM. As for `Clc1cccc(Nc2n[nH]c3c2Cc2sccc2-3)c1Cl` [Example-54, (2,3-Dichloro-phenyl)-(4,7-dihydro-1-thia-4,5-diaza-cyclopenta[a]pentalen-6-yl)-amine], the IC50 in test [1] lay in the range of 100 to 499 nM. Regarding `COc1ccc(-c2n[nH]c3c2Cc2sc(-c4ccc(OC)c(F)c4)cc2-3)cc1` [Example-83, 2-(3-Fluoro-4-methoxy-phenyl)-6-(4-methoxy-phenyl)-4,7-dihydro-1-thia-4,5-diaza-cyclopenta[a]pentalene], the half-maximal inhibitory concentration (IC50) in test [1] is less than 100 nM. As to `N#Cc1ccc(-c2ccc(-c3n[nH]c4c3Cc3sccc3-4)cc2)cc1` [Example-15, 4′-(4,7-Dihydro-1-thia-4,5-diaza-cyclopenta[a]pentalen-6-yl)-biphenyl-4-carbonitrile], in test [1], the IC50 was less than 100 nM. Take `COc1ccc(-c2n[nH]c3c2Cc2sc(Br)cc2-3)cc1` [Example-34, 2-Bromo-6-(4-methoxy-phenyl)-4,7-dihydro-1-thia-4,5-diaza-cyclopenta[a]pentalene]: the IC50 in test [1] is less than 100 nM. The same measure, in the same setting: for `COc1ccc(-c2n[nH]c3c2Cc2sc(-c4ccc(F)c(F)c4)cc2-3)cc1` [Example-72, 2-(3,4-Difluoro-phenyl)-6-(4-methoxy-phenyl)-4,7-dihydro-1-thia-4,5-diaza-cyclopenta[a]pentalene] the value was less than 100 nM; for `Nc1ccc(Nc2ccc(-c3n[nH]c4c3Cc3sccc3-4)cc2)cc1` [Example-13, N-[4-(4,7-Dihydro-1-thia-4,5-diaza-cyclopenta[a]pentalen-6-yl)-phenyl]-benzene-1,4-diamine], 100 to 499 nM; for `[O-][n+]1cccc(-c2n[nH]c3c2Cc2sccc2-3)c1` [Example-28, 6-(1-Oxy-pyridin-3-yl)-4,7-dihydro-1-thia-4,5-diaza-cyclopenta[a]pentalene], greater than 1000 nM.
